Results from PMC11157491, “Novel Alaninamide Derivatives with Drug-like Potential for Development as Antiseizure and Antinociceptive Therapies—In Vitro and In Vivo Characterization” (ACS Chemical Neuroscience, 2024).

Assays:
[1] = Metabolic stability in human liver microsomes; type: in vitro ADME; settings: human, human liver microsomes; HLMs, 120 min; read-out: metabolic stability (% remaining after the reaction with HLMs)
Source text: Molecular mass Molecular mass of the
Substrate (m/z) metabolite (m/z) Metabolic pathway
* Reference unstable drug; metabolic stability determined using the same procedure published previously

[2] = tested on: mice; experiment: Spontaneous locomotor activity; type: in vivo; settings: all tested doses, i.p. 30 min before
Method: We aimed to test the influence of the test compound on spontaneous locomotor activity to investigate its sedative properties. The strong sedative activity of new compounds is considered an undesirable property, which may lead to an incorrect or ambiguous interpretation of the in vivo results.
Figure S3. […] The test compound or […]
vehicle (1% Tween 80 solution) were administered 30 min i.p. before the 30-min long evaluation of locomotor activity. The results are presented as bar plots showing the mean ± SEM. The statistical significance was evaluated by one-way ANOVA followed by Dunnett’s post hoc test: * p < 0.05, *** p < 0.001, n = 8–10 mice per […]
(1 picture or pasted object on this page, not shown here)

[3] = tested on: mice; experiment: Oxaliplatin (OXPT)-induced peripheral neuropathy, von Frey test; type: in vivo
Method: The method is based on measuring the mean force that caused the paw withdrawal reaction, i.e., pain threshold. […] In the group treated with 28 at a dose of 25 mg/kg (Figure 6C), the initial value of 5.84 ± 0.43 (baseline) was decreased to the value of 2.78 ± 0.34 (47.6% of the baseline) and 3.39 ± 0.36 (58.0% of the baseline) in the early and late phases, respectively. […] In the group treated with the test compound at a dose of 75 mg/kg, the initial value of 6.17 ± 0.56 decreased to the values of 2.93 ± 0.45 (47.5% of the baseline) and 3.61 ± 0.28 (58.5% of the baseline) in the early and late phases, respectively.
The experimental groups consisted of 10 adult male Albino Swiss mice (CD-1, 18–25 g). Each animal was tested only once. Immediately after the assay, the animals were sacrificed by cervical dislocation. Behavioral measurements were observed by trained observers. The in vivo antinociceptive assays were in accordance with Polish regulations and the European Union Directive of 22 Sept 2010 (2010/63/EU). All procedures were carried out according to the rules of the International Council on Laboratory Animal Science (ICLAS) and were approved by the Local Ethics Committee in Cracow, Poland (104/2015, 279/2019, and 614/2022). The tested substances were suspended in a 1% aqueous solution of Tween 80 and were injected i.p. 30 min prior to the test. Control group animals (negative control) were administered with an appropriate amount of vehicle (Tween 80, 1% aqueous solution, i.p.) 30 min prior to the test. […] Before formalin application, different groups of animals were injected i.p. with vehicle (10 mL/kg, negative control). The in vivo procedure for the model of capsaicin-induced nociception was previously reported;[67] the animals were pretreated with vehicle (10 mL/kg, negative control), and the dose–response of investigated compounds was evaluated at 12.5, 25, and 50 mg/kg.
Data are presented as means ± standard error of the mean (SEM). GraphPad Prism Software (v.5) was used to analyze the vast majority of data. Statistically significant differences between groups were calculated using one-way analysis of variance (ANOVA) and the post hoc Dunnett’s multiple comparison test or two-way analysis of variance (ANOVA). The criterion for significance was set at p < 0.05. The log-probit method was applied to statistically determine the ED50 values with 95% confidence limits.

| remaining at 2 h [1] [%] | spontaneous locomotor activity [2] | SMILES | pain threshold after compound, % of the baseline ([3]; 25 mg/kg, early phase (3 h after OXPT)) [%] | pain threshold after compound, % of the baseline ([3]; 50 mg/kg, early phase (3 h after OXPT)) [%] | pain threshold after compound, % of the baseline ([3]; 50 mg/kg, late phase (7 days after OXPT)) [%] | pain threshold after compound, % of the baseline ([3]; 75 mg/kg, early phase (3 h after OXPT)) [%] | pain threshold after compound, % of the baseline ([3]; 75 mg/kg, late phase (7 days after OXPT)) [%] |
| --- | --- | --- | --- | --- | --- | --- | --- |
| 93.5 |  | CC(=O)NC(C)C(=O)N1CCN(c2cccc(C(F)(F)F)c2)CC1 (stereo not shown) [Compound 26, N-(1-oxo-1-(4-(3-(Trifluoromethyl)phenyl)piperazin-1-yl)propan-2-yl)acetamide] |  |  |  |  |  |
|  | decreased spontaneous locomotor activity | CC(=O)NC(C)C(=O)N1CCN(c2cccc(OC(F)(F)F)c2)CC1 (stereo not shown) [Compound 28, N-(1-oxo-1-(4-(3-(Trifluoromethoxy)phenyl)piperazin-1-yl)propan-2-yl)acetamide] | 99.5 | 85.4 | 104.8 | 121.5 | 91.3 |
